Data taken from patent US20030176456A1, “Methods for reducing alcohol cravings in chronic alcoholics” (priority 2001, published 2003).

What was measured:
squirrel monkeys = details: Rowlett et al., unpublished observation; cited from earlier work
GABAA α5β3γ2 receptors = biological target: T1, GABAA α5β3γ2 receptors (Rattus norvegicus, UniProt P18508+P19969); assay: Xenopus oocyte expression assay, modulation of GABA current; format: cell-based; details: saturating 1-10 μM modulator with EC50 GABA (30 μM); mean±S.D.
T1 construct: expressed in transfected cells; host or cells: Xenopus laevis oocytes injected with cRNA

α5 GABAA receptor = biological target: T2, α5 GABAA receptor (Homo sapiens, UniProt P18507+P31644); assay: Modulation of GABA induced currents in HEK cells; format: cell-based; details: 0.1 to 100 μM
T2 construct: expressed in transfected cells; host or cells: HEK cells
Method: (§1) In this study, we assessed the functional capacity of βCCt to competitively antagonize the anxiolytic versus the sedative properties of the prototypical BDZ, chlordiazepoxide.
(§2) FIGS. 21-26 represent the molecular biology data in α1-α6 GABAA receptors. […] In other words, βCCt behaves like chlordiazepoxide at the anxiety receptors. It is important to note that these effects occur at 50-100 μM, and would most likely be observed at moderate doses.

α4 GABAA receptor = biological target: T3, α4 GABAA receptor (Homo sapiens, UniProt P18507+P48169); assay: Modulation of GABA induced currents in HEK cells; format: cell-based; details: 0.1 to 100 μM
T3 construct: expressed in transfected cells; host or cells: HEK cells
Method: as §1, §2

α2 GABAA receptor = biological target: T4, α2 GABAA receptor (Homo sapiens, UniProt P18507+P47869); assay: Modulation of GABA induced currents in HEK cells; format: cell-based
T4 construct: expressed in transfected cells; host or cells: HEK cells
Method: as §1, §2

α3 GABAA receptor = biological target: T5, α3 GABAA receptor (Homo sapiens, UniProt P18507+P34903); assay: Modulation of GABA induced currents in HEK cells; format: cell-based
T5 construct: expressed in transfected cells; host or cells: HEK cells
Method: as §1, §2

α1 GABAA receptor = biological target: T6, α1 GABAA receptor (Homo sapiens, UniProt P14867+P18507); assay: Modulation of GABA induced currents in HEK cells; format: cell-based; details: 0.1 to 100 μM
T6 construct: expressed in transfected cells; host or cells: HEK cells
Method: as §1, §2

α6 GABAA receptor = biological target: T7, α6 GABAA receptor (Homo sapiens, UniProt P18507+Q16445); assay: Modulation of GABA induced currents in HEK cells; format: cell-based; details: 0.1 to 100 μM
T7 construct: expressed in transfected cells; host or cells: HEK cells
Method: as §1, §2

P rats [1] = format: in vivo, rat
Method: (§3) Rats were placed in the middle of the automated plus maze (Acuscan Electronics, Columbus, Ohio, USA) with two walled and open arms under dim illumination (for details see June et al., 1998b).
(§4) βCCt (5-60 mg/kg i.p.) and chlordiazepoxide (2.5, 5, 10 mg/kg i.p.) were administered 15 and 30 min, respectively, prior to being placed in the plus maze or open field. EtOH (1.25 g/kg) was given 5 min prior to placing the rats in the open field. When βCCt was given in combination with either chlordiazepoxide or EtOH, it was given 10 min prior to chlordiazepoxide and EtOH. As noted above, βCCt was administered in Tween-20 solution, while all other drugs were mixed in sterile saline. Animals were tested between 9am-3 pm.
(§5) HAD-1 asnd P rats were randomly assigned to each of the […] drug treatment groups (Veh, 5, 15, 30, 60 mg/kg). A between group ANOVA with drug treatment as the independent factor was conducted for HAD-1 (n=8-12 per treatment group) [total N=42] and P (n=7-12 per treatment group) [total N=42] rats on the plus-maze test.

HAD-1 rats [2] = format: in vivo, rat
Method: as §3, §4, §5

P rats [3] = format: in vivo, rat; details: i.p.; chlordiazepoxide 10 mg/kg, βCCt 15 mg/kg; 10 min open field
Method: (§6) Ambulatory count in the open field was recorded individually for 10 min in a plexiglas chamber (42 cm×42 cm 30 cm) using a Digiscan activity monitoring system (Acuscan Electronics, Columbus, Ohio, USA) (for details of the monitoring system see June et al., 1998d).
(§7) βCCt (15 mg/kg i.p.) and chlordiazepoxide (10 mg/kg i.p.) were administered 15 and 30 min, respectively, prior to the rats being placed in the open field. EtOH (1.25 g/kg) was given 5 min prior to placing the rats in the open field. When βCCt was given in combination with either chlordiazepoxide or EtOH, it was given 10 min prior to chlordiazepoxide and EtOH. As noted above, βCCt was administered in Tween-20 solution, while all other drugs were mixed in sterile saline. Animals were tested between 9 am-3 pm.
(§8) Ambulatory count in the open field was recorded individually for 10 min in a plexiglas chamber (42 cm×42 cm 30 cm) using a Digiscan activity monitoring system (Acuscan Electronics, Columbus, Ohio, USA) (for details of the monitoring system see June et al., 1998b).
as §4

HAD-1 rats [4] = format: in vivo, rat; details: i.p.; chlordiazepoxide 10 mg/kg, βCCt 15 mg/kg; 10 min open field
Method: as §6, §7, §8, §4

T4 sequence (P47869 29-451): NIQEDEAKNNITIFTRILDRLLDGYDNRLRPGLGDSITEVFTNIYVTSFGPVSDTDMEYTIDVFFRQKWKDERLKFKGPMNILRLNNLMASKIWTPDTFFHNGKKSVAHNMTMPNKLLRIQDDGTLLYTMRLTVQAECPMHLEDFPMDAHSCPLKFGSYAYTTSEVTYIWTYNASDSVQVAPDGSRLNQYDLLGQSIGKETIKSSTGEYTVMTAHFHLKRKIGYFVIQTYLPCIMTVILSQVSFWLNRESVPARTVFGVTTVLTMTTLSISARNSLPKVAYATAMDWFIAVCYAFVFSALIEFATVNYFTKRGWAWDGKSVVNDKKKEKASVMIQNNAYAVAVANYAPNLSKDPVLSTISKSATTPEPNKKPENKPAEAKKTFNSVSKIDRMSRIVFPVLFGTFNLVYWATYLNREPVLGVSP
T4 sequence (P28472 26-473 partner): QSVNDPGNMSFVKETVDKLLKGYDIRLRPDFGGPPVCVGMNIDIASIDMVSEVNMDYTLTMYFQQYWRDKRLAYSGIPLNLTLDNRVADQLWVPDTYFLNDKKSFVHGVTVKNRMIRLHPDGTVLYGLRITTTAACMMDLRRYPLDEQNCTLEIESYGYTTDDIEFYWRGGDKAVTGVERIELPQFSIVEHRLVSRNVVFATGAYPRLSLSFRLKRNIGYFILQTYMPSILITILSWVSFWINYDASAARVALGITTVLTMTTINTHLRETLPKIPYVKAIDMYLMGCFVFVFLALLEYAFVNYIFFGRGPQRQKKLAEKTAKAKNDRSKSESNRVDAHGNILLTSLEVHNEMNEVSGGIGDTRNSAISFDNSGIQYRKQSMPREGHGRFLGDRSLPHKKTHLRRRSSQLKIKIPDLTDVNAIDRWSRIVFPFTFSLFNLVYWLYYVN
T4 sequence (P18507 40-475): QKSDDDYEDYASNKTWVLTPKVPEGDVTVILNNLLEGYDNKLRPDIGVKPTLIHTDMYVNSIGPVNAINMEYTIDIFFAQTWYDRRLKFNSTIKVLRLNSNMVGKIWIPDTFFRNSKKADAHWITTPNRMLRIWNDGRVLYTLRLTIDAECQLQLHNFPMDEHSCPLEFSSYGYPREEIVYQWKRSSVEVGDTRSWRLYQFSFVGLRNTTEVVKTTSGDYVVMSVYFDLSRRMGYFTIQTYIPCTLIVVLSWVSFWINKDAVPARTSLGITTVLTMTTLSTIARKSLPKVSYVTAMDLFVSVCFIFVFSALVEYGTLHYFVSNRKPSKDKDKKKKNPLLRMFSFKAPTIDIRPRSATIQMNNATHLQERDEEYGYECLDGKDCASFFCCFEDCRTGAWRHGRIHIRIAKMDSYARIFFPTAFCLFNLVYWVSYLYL
T6 sequence (P14867 28-456): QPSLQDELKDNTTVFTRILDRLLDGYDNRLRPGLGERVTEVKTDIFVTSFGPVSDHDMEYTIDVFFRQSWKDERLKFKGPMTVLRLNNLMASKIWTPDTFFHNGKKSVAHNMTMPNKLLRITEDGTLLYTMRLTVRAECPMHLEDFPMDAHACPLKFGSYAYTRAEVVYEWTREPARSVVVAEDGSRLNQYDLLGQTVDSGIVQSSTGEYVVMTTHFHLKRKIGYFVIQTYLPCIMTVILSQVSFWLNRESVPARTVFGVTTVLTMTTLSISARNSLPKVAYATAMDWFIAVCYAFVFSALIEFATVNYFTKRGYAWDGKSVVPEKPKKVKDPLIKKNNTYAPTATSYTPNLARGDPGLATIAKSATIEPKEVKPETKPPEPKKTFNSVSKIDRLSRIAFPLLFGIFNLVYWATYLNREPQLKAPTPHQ
T6 sequence (P28472 26-473 partner): as the sequence (P28472 26-473 partner) above
T6 sequence (P18507 40-475): as the sequence (P18507 40-475) above
T5 sequence (P34903 29-492): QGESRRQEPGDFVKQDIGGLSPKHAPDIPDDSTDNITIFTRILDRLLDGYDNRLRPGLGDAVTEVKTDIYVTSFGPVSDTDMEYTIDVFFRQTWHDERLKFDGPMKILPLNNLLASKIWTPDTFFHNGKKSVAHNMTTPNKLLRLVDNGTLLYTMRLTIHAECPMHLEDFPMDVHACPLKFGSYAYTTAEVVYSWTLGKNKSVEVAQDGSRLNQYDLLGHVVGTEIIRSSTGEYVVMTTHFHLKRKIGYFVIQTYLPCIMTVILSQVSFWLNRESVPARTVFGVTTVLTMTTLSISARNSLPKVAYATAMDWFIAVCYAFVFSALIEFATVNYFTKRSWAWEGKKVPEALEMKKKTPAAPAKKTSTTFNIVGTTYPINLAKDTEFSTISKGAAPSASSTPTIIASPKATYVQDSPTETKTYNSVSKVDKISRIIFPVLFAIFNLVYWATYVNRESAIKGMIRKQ
T5 sequence (P28472 26-473 partner): as the sequence (P28472 26-473 partner) above
T5 sequence (P18507 40-475): as the sequence (P18507 40-475) above
T3 sequence (P48169 36-554): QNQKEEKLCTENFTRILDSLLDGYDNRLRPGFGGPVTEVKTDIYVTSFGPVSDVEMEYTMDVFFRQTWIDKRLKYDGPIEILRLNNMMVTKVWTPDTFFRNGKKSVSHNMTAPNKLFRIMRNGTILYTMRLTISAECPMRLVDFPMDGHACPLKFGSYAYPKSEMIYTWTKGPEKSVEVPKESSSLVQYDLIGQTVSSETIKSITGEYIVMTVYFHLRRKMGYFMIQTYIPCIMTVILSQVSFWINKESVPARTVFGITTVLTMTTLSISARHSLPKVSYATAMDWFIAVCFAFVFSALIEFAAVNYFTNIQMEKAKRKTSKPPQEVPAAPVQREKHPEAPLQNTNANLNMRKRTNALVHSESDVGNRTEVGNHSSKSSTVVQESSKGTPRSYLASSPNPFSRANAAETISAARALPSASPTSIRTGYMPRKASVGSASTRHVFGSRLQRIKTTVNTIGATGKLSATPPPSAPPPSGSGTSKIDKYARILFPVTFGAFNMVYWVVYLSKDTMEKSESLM
T3 sequence (P28472 26-473 partner): as the sequence (P28472 26-473 partner) above
T3 sequence (P18507 40-475): as the sequence (P18507 40-475) above
T2 sequence (P31644 32-462): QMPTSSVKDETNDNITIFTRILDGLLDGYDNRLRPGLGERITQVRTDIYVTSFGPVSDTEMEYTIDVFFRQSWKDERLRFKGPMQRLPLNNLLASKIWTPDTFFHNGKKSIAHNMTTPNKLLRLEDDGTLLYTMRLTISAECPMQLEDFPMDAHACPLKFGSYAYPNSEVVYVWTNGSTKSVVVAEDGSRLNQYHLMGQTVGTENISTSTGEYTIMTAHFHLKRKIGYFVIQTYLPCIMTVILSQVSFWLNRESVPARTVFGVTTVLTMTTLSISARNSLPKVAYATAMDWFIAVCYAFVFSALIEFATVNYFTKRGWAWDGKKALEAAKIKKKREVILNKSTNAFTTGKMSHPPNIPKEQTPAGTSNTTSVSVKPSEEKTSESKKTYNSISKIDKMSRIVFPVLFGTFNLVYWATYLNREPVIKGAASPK
T2 sequence (P28472 26-473 partner): as the sequence (P28472 26-473 partner) above
T2 sequence (P18507 40-475): as the sequence (P18507 40-475) above
T7 sequence (Q16445 20-453): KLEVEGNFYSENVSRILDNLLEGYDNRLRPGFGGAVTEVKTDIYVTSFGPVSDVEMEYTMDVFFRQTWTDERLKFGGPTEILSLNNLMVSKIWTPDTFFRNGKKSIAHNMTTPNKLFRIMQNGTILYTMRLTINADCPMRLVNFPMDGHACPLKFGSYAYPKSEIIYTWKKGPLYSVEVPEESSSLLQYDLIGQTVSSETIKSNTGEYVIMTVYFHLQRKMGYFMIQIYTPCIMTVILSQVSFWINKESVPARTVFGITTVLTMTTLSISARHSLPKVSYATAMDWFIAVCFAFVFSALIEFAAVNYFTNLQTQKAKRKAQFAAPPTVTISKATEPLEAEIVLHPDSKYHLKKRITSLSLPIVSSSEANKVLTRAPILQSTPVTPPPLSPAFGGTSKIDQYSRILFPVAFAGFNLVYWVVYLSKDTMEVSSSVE
T7 sequence (P28472 26-473 partner): as the sequence (P28472 26-473 partner) above
T7 sequence (P18507 40-475): as the sequence (P18507 40-475) above

SMILES: CCCOc1cc2c(cn1)[nH]c1ccccc12.Cl [3-PBC, 3-Propoxy-β-carboline hydrochloride]
- activity in observational studies vs saline controls (squirrel monkeys): inactive

SMILES: CC(C)(C)OC(=O)c1cc2c(cn1)[nH]c1ccccc12 [βCCt, β-carboline-3-carboxylate t-butyl ester]
- % of GABA response, α5 (GABAA α5β3γ2 receptors): 88±7%
- activity at the α5 receptor in HEK cells (α5 GABAA receptor): Agonist and inverse-agonist activity
- intrinsic activity in HEK cells, α5 (α5 GABAA receptor): Intrinsic activity is seen
- activity at the α4 receptor in HEK cells (α4 GABAA receptor): Moderate agonist activity
- intrinsic activity in HEK cells, α4 (α4 GABAA receptor): Intrinsic activity is seen
- activity at the α2 receptor in HEK cells (α2 GABAA receptor; 0.1 to 100 μM): Strong agonist activity
- intrinsic activity in HEK cells, α2 (α2 GABAA receptor; 0.1 to 100 μM): Intrinsic activity is seen
- concentration at which agonist-like effects occur, α2 (α2 GABAA receptor; HEK cells): 50 to 100 µM
- activity at the α3 receptor in HEK cells (α3 GABAA receptor; 0.1 to 100 μM): Strong agonist activity
- concentration at which agonist-like effects occur, α3 (α3 GABAA receptor; HEK cells): 50 to 100 µM
- activity at the α1 receptor in HEK cells (α1 GABAA receptor): Agonist and inverse-agonist activity
- intrinsic activity in HEK cells, α1 (α1 GABAA receptor): Intrinsic activity is seen
- activity at the α6 receptor in HEK cells (α6 GABAA receptor): Minimal agonist activity
- intrinsic activity in HEK cells, α6 (α6 GABAA receptor): Intrinsic activity is seen
- effect on anxiolytic activity produced by chlordiazepoxide (5.0 mg/kg) (P rats [1]; 5, 15 mg/kg i.p.): neither dose of βCCt (5, 15 mg/kg, i.p.) altered the anxiolytic activity
- number of closed arm entries (P rats [1]; i.p. 5-60 mg/kg): significant reduction in performance only with the 60 mg/kg dose
- sedation in the plus maze (HAD-1 rats [2]; 60 mg/kg i.p., data not shown): marked sedative profile
- effect on anxiolytic activity produced by chlordiazepoxide (5.0 mg/kg) (HAD-1 rats [2]; 5, 15 mg/kg i.p.): neither dose of βCCt (5, 15 mg/kg, i.p.) altered the anxiolytic activity
- number of closed arm entries (HAD-1 rats [2]; i.p.): without effect
- locomotor activity, drug given alone (P rats [3]): did not produce any intrinsic effects
- locomotor activity, drug given alone (HAD-1 rats [4]): did not produce any intrinsic effects
